Ends that are not written are not given here.
System: multidrug-resistant (MDR) strain of K. pneumoniae, clinical isolate
Assay: microbe, parasite or virus in culture
Assay type: cell-based, Klebsiella pneumoniae
Settings: MDR K. pneumoniae clinical isolate

WKKIKKFF-NH2 [PvAMP66] was tested. Which “MIC” value did it give?
The value was 3.51 µg/mL.

And the IC50 (95% confidence interval in parentheses, read-out: IC50)?
The IC50 was 15.8 µM.

And the “MIC” value (peptides 1.56–200 µM, antibiotics 1.56–100 µM, 24 h 37 °C)?
Its value is 25.00 µM.

Reference: article PMC10812672, “Short Antimicrobial Peptide Derived from the Venom Gland Transcriptome of Pamphobeteus verdolaga Increases Gentamicin Susceptibility of Multidrug-Resistant Klebsiella pneumoniae” (Antibiotics, 2023)
